In PubChem BioAssay AID2305 (GlaxoSmithKline (GSK), 2010):
pIC50: −log10 of the molar value.

Tested on: P. falciparum 3D7 growth, pLDH absorbance
Test: blood-stage malaria parasite growth potency – strain 3D7, dose response (AID 2305)

Point of comparison: `Clc1ccc(-c2csc3ncnc(Cl)c23)cc1`, pIC50 6.34. Against it:
- CO[C@H](C)[C@H](NC(=O)[C@H](CC(C)C)[C@H](CCC(F)(F)F)N(O)C=O)C(=O)Nc1nccs1 — 0.62 log units higher, 6.96
- CCCc1cc2c3c(N)nc(N)nc3ccc2n1CC — 0.96 log units higher, 7.30
- Cc1cc(C(=O)CN2C(=O)NC(C)(c3ccc4ccccc4c3)C2=O)c(C)n1Cc1ccco1 (centres undefined) — within 0.2 log units, 6.18
- FC(F)(F)c1cccc(NC(=S)NN=Cc2ccccn2)c1 — within 0.2 log units, 6.46
- CC(CCCCC(=O)Nc1ccc(C(F)(F)F)cc1)NCC(O)c1cccc(Cl)c1 (centres undefined) — 0.21 log units higher, 6.55
- C#CCNCc1ccc(-c2ccc(-c3nc4ccc(C(F)(F)F)cc4[nH]3)s2)cc1 — 0.21 log units lower, 6.13
- COc1cccc(Nc2c(C(N)=O)cnc3ccc(-c4ccc(S(C)=O)cc4)cc23)c1 (centres undefined) — 0.38 log units higher, 6.72
- Clc1ccc2c(NCCCCCCCCNc3ccnc4cc(Cl)ccc34)ccnc2c1 — within 0.2 log units, 6.32
- CCn1c(C)cc(C=C2SC(=Nc3ccccc3)NC2=O)c1C — within 0.2 log units, 6.17
- CCc1c(CCNCCCCCCNCCc2ccc([N+](=O)[O-])cc2)ccc(OC)c1OC — 0.20 log units lower, 6.14
- O=C(NOCCCCOc1ccc(Cl)c(Cl)c1)c1ccccc1 — 0.40 log units higher, 6.74
- Cc1cc(N(C)C)nc(Nc2ccc(NC(=O)c3ccc(Br)o3)cc2)n1 — 0.36 log units lower, 5.98
- CC(C)C[C@H](NC(=O)[C@H](Cc1ccccc1)N(C[C@H](Cc1ccccc1)NC(=O)OC(C)(C)C)C(=O)C(F)(F)F)C(=O)NC1CCN(Cc2ccccc2)CC1 — within 0.2 log units, 6.28
- O=S(=O)(Nc1ccc(CCN2CCC(N3CCCCC3)CC2)cc1)c1ccc(Cl)cc1 — 0.38 log units lower, 5.96
- O=[N+]([O-])c1cccc(C=NNc2ccnc3ccc(C(F)(F)F)cc23)c1 — 0.38 log units lower, 5.96
- O=c1cc(NCCCNCc2ccc(Cl)c(Cl)c2)[nH]c2cc(F)cc(F)c12 — within 0.2 log units, 6.17
- Cc1cc(NN=Cc2cccc(Cl)c2)c2cc(F)ccc2n1 — 0.22 log units lower, 6.12
- CN(C)c1ccc(CN2CCC(NC(=O)c3ccc(-c4ccccc4Cl)s3)CC2)cc1 — 0.29 log units lower, 6.05
- CC(C)Cn1c(N)cc(=O)n(C)c1=O — 0.33 log units lower, 6.01
- CCc1ccc(OCc2ccccc2C(=O)Nc2ccc3nc(C)cc(N)c3c2)cc1 — 0.36 log units higher, 6.70
- COc1ccc2ncc(F)c(CCN3C[C@H](CNCc4cc(F)c5c(c4)NC(=O)CO5)[C@H](O)C3)c2n1 — within 0.2 log units, 6.17
- CC[C@H]1CN(CCCC(=O)c2ccccc2)CC[C@H]1CCCc1ccnc2ccc(OC(=O)c3ccccc3)cc12 — 0.26 log units lower, 6.08
- COc1ccc(NC(=O)N2CCCN(CCCCCNC(=O)/C=C/c3ccc(Cl)cc3)CC2)cc1Cl — 0.25 log units lower, 6.09
- COc1ccc(-c2ccc(NC(=O)c3ccc(Cl)cc3)cc2)cc1CN1CCCN(C)CC1 — within 0.2 log units, 6.19
- CN1CCN(c2ccc3nc(-c4ccc5nc(-c6ccc([N+](=O)[O-])c(N)c6)[nH]c5c4)[nH]c3c2)CC1 — 0.66 log units higher, 7.00
- O=C(Nc1ccc(Br)cc1)N(CCN1CCOCC1)CC(O)COCc1ccc(F)cc1 (centres undefined) — 0.36 log units lower, 5.98
- O=C(Nc1cccc(-c2ccc(CN3CCCC3)cc2)c1)c1ccc(Cl)cc1 — within 0.2 log units, 6.37
- c1cncc(CCNCc2cccc(-c3csc(-c4nc5ccccc5[nH]4)c3)c2)c1 — within 0.2 log units, 6.15
- CCN1CCC(N(Cc2ccc(-c3ccc(C(F)(F)F)cc3)cc2)C(=O)Cn2c(CCc3cccc(F)c3F)cc(=O)c3c2CCC3)CC1 — 0.33 log units lower, 6.01
- CCCC(CNCc1cccc(SC(F)(F)F)c1)CNc1cc(=O)c2ccccc2[nH]1 (centres undefined) — within 0.2 log units, 6.15
- O=C(N1CCN(c2ccnc3cc4c(cc23)N(Cc2ccccc2)CC4)CC1)C(F)(F)F — 0.25 log units higher, 6.59
- CN(C)Cc1ccc(-c2cccc(NC(=O)c3cccc(Cl)c3)c2)cc1 — within 0.2 log units, 6.16
- COc1cccc(C(=O)NCCc2cccc(Cl)c2)c1OCc1ccccc1 — 0.44 log units lower, 5.90
- c1ccc2c(c1)CN(CC1CC1)CC1(CCN(Cc3c[nH]c4cnccc34)CC1)O2 — 0.29 log units lower, 6.05
- CNC(=O)c1ccccc1Nc1nc(Nc2ccc(N3CCN(C)CC3)nc2)ncc1C — 0.40 log units lower, 5.94
- N#Cc1ccc2c(c1)CCN(CCC1CCC(NC(=O)/C=C/c3nc4ccccc4s3)CC1)CC2 (centres undefined) — 0.26 log units lower, 6.08
- O=C(N[C@@H](Cc1ccccc1)[C@H](O)CNC1CCCCC1)c1cc(C2CCCC2)cc(N2CCCC2=O)c1 — 0.43 log units higher, 6.77
- COc1ccc(CNCc2ccccc2)cc1-c1cccc(S(=O)(=O)NCCN2CCCC2)c1 — 0.24 log units lower, 6.10
